Experimental data published in patent US7648824B2, “Method of sequencing DNA” (Qiagen GmbH, priority 2000, dated 2010).
“Also recorded” adds a separate entry of the source.

How the values were obtained:
[1] = system: Enzyme mix (DNA polymerase, ATP-sulphurylase, apyrase and luciferase); experiment: Preincubation of Pyrosequencing reaction mixture with nucleotide, then PPi-based sequencing with ELIDA detection; type: biochemical; conditions: for effect of preincubation on the sequencing reaction: similar experiment, nucleotides from prototype PSQ 96 SNP Reagent kit, 2 pmol template, control 1×TE, results not shown; for inhibition of the sequencing reaction: preincubation with 5, 10 or 20 μl nucleotide for 10 minutes at room temperature without template, compared with 0 μl
Protocol: (§1) In this example, the inhibitory effect of dATPαS on a PPi-based sequencing reaction with ELIDA detection (known as Pyrosequencing) was investigated by preincubating the reaction mixture in the absence of template with varying amounts of the normal (i.e. racemic) dATPαS (containing both Rp and Sp isomers), or the pure Sp isomer of dATPαS. After preincubation, template was added and a normal “Pyrosequencing™”, reaction was carried out.
(§2) The “normal” dATPαS was taken from the PSQ 96 SNP Reagent kit supplied by Pyrosequencing AB (Uppsala, SE). The pure Rp and Sp isomers were purchased from Biolog Life Science (Bremen, Germany). The reaction mixture also included Enzyme mix (DNA polymerase, ATP-sulphurylase, apyrase and luciferase) and Substrate mix (luciferin and APS), from the PSQ 96 SNP Reagent kit supplied by Pyrosequencing AB. The template was an oligonucleotide (interactiva, Ulm, Germany) from which the following sequence could be read after annealing of a sequencing primer: […].
The pure isomer samples were diluted to the same concentration as the dATPαS in the PSQ 96 SNP Reagent kit. For preincubation, 0, 5, 10 or 20 μl of each A-sample (normal dATPαS or the Rp or Sp isomer) was added to a mixture containing 5 μl Enzyme mix, 5 μl Substrate mix in a total volume of 45 μl. The reaction was carried out in the 96 well plate delivered with the PSQ 96 SNP Reagent kit. The reaction was incubated at room temperature, in the dark for 10 minutes. After this, […] in 5 μl annealed oligonucleotide template was added to each well and the plate was transferred […] the PSQ 96 instrument, where a normal “Pyrosequencing™” reaction was carried out (omitting addition of Enzyme and Substrate mixes).
A similar experiment was also performed where the preincubation was carried out comparing “normal” dATPαS with dCTP, dGTP or dTTP, all from a prototype to the PSQ 96 SNP Reagent kit. As control, only 1×TE (dilution buffer for the dNTPs) was added. The template was the same as above, but 2 pmol were added to each well.

[2] = target: T1, luciferase (Photinus pyralis, UniProt P08659); experiment: Model system simulating PPi-based sequencing: nucleotide plus ATP added to luciferase/apyrase/substrate mixture, light signal height; type: biochemical; conditions: for luciferase activity (signal intensity, height of ascending curve): 50 additions of nucleotide + 2 μM ATP in 50 minutes, 100 ng luciferase, 50 mU apyrase, room temperature
T1 construct: purchased BioThema, Dalaro, Sweden
T1 sequence (P08659 whole entry): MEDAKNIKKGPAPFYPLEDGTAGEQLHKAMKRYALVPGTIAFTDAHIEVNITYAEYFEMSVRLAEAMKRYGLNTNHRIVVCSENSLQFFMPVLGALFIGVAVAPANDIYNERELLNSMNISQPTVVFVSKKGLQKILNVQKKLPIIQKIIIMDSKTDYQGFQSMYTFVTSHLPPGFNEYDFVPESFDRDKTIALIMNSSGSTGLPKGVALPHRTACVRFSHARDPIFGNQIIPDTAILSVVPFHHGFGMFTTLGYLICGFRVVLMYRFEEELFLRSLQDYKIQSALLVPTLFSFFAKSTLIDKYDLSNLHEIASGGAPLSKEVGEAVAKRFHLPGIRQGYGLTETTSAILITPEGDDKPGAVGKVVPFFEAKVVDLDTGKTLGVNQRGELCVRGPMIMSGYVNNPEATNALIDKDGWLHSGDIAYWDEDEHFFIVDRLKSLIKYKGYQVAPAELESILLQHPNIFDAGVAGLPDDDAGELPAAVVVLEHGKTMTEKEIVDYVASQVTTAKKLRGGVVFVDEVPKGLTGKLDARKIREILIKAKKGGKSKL
Protocol: (§3) In this Example a series of 5 experiments were carried out to examine the inhibitory effect of each of the 5 nucleotides (dATP, dATPαS, dCTP, dGTP and dTTP) on the enzymes apyrase and luciferase. A model system was used which simulated the effects of these enzymes in a PPi-based sequencing reaction. Each nucleotide was added to the luciferase/apyrase/substrate mixture, along with ATP (to provide a substrate for luciferase), and the effect of each nucleotide addition on the enzymes was monitored by observing the light signals generated from the luciferase reaction.
(§4) The reactions were performed at room temperature in a volume of 50 μl on an automated prototype Pyrosequencer instrument (kindly supplied by Pyrosequencing AB, Uppsala, Sweden). The reaction mixture contained: 50 mU apyrase (Sigma Chemical Co., USA), 100 ng purified luciferase (BioThema, Dalaro, Sweden), 0.1 M Tris-acetate (pH 7.75), 0.5 mM EDTA, 5 mM magnesium acetate, 0.1% bovine serum albumin, 1 mM dithiothreitol, 0.4 mg/ml polyvinylpyrrolidone (360 000), and 100 μg/ml D-luciferin (BioThema). An ATP concentration of 2 μM was added to different nucleotides (dATP, dATPαS, dCTP, dGTP and dTTP), as shown in FIGS. 1 to 5 to follow the activity of luciferase and apyrase. For investigation of the effect of Shrimp Alkaline Phosphatase (Amersham Pharmacia Biotech, Uppsala, Sweden), two units of this enzyme were added to the reaction mixture—see further below. In total, 50 additions of nucleotide and ATP mixture were performed in 50 minutes. The output of light resulting from nucleotide incorporation was detected by a CCD-camera. The data was obtained in Excel format.

[3] = target: T2, apyrase (Solanum tuberosum, UniProt P80595); experiment: Model system simulating PPi-based sequencing: nucleotide plus ATP added to luciferase/apyrase/substrate mixture, slope of descending curve / signal width; type: biochemical; conditions: for apyrase activity (slope of descending curve, signal width): 50 additions of nucleotide + 2 μM ATP in 50 minutes, 100 ng luciferase, 50 mU apyrase, room temperature
T2 construct: purchased Sigma Chemical Co., USA
T2 sequence (P80595 1-454): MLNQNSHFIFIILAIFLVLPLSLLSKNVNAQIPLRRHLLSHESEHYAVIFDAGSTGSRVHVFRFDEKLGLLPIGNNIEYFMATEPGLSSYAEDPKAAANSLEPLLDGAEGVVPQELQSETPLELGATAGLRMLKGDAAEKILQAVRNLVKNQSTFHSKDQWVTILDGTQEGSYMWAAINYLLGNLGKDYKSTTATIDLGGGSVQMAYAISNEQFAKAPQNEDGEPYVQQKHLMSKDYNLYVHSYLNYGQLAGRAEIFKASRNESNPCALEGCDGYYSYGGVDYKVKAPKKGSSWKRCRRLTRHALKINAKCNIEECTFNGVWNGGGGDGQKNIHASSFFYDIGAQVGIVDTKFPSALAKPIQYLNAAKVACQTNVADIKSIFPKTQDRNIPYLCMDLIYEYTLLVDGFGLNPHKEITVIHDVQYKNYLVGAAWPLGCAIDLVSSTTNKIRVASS
Protocol: as §3, §4

[4] = target: T1, luciferase; experiment: Preincubation of Pyrosequencing reaction mixture with nucleotide, signal intensity; type: biochemical; conditions: preincubation with 5, 10 or 20 μl nucleotide for 10 minutes, compared with 0 μl
Protocol: as §1, §2
(§5) The pure isomer samples were diluted to the same concentration as the dATPαS in the PSQ 96 SNP Reagent kit. For preincubation, 0, 5, 10 or 20 μl of each A-sample (normal dATPαS or the Rp or Sp isomer) was added to a mixture containing 5 μl Enzyme mix, 5 μl Substrate mix in a total volume of 45 μl. The reaction was carried out in the 96 well plate delivered with the PSQ 96 SNP Reagent kit. […]

[5] = target: T2, apyrase; experiment: Preincubation of Pyrosequencing reaction mixture with nucleotide, signal width; type: biochemical; conditions: preincubation with 5, 10 or 20 μl nucleotide for 10 minutes, compared with 0 μl
Protocol: as §1, §2, §5

[6] = target: T1, luciferase; conditions: literature report, Ford et al., 1998; cited from earlier work
[7] = 0.7 mM dATPαS + 2 μM ATP, 50 cycles, 2 U alkaline phosphatase added

SMILES	effect of preincubation on the sequencing reaction [1]	luciferase activity (signal intensity, height of ascending curve) [2]	apyrase activity (slope of descending curve, signal width) [3]	inhibition of the sequencing reaction [1]	further results
Nc1ccn([C@H]2C[C@H](O)[C@@H](COP(=O)(O)OP(=O)(O)OP(=O)(O)O)O2)c(=O)n1 [dCTP, deoxycytidine triphosphate]	no negative effect	do not inhibit luciferase or apyrase	do not inhibit luciferase or apyrase	–	–
Nc1ncnc2c1ncn2[C@H]1C[C@H](O)[C@@H](COP(O)(=S)OP(=O)(O)OP(=O)(O)O)O1 (single isomer, unassigned) [Rp isomer]	–	–	–	Even more pronounced inhibition; also recorded: severe effect on all enzymes involved in the ELIDA detection	luciferase inhibition (signal intensity, peak height) [4]: signal intensity is decreased; apyrase inhibition (signal width, signal definition) [5]: increased signal width
Nc1ncnc2c1ncn2[C@H]1C[C@H](O)[C@@H](COP(=O)(O)O)O1 [dAMP]	–	–	–	–	inhibition of luciferase [6]: inhibits luciferase
Nc1ncnc2c1ncn2[C@H]1C[C@H](O)[C@@H](COP(O)(=S)OP(=O)(O)OP(=O)(O)O)O1 (single isomer, unassigned) [Sp isomer]	–	–	–	significantly reduced	–
Nc1nc2c(ncn2[C@H]2C[C@H](O)[C@@H](COP(=O)(O)OP(=O)(O)OP(=O)(O)O)O2)c(=O)[nH]1 [dGTP, deoxyguanosine triphosphate]	no negative effect	do not inhibit luciferase or apyrase	do not inhibit luciferase or apyrase	–	–
Nc1ncnc2c1ncn2[C@H]1C[C@H](O)[C@@H](COP(=O)(O)OP(=O)(O)OP(=O)(O)O)O1 [dATP, deoxyadenosine triphosphate]	–	relatively linear decrease in signal intensity	–	–	–
Nc1ncnc2c1ncn2[C@H]1C[C@H](O)[C@@H](COP(O)(=S)OP(=O)(O)OP(=O)(O)O)O1 (stereo partly drawn) [dATPαS, deoxyadenosine α-thiotriphosphate]	severe negative effect	relatively linear decrease in signal intensity	drastically inhibited in later cycles	progressively severe inhibition	luciferase activity (signal intensity) in the presence of alkaline phosphatase [2, 7]: no inhibition of luciferase; decrease in signal intensity after 50 cycles, less than that obtained with dATP ([2]; 0.7 mM nucleotide + 2 μM ATP, after 50 cycles, compared with dATP (FIG. 1)): 50%; luciferase inhibition (signal intensity, peak height) [4]: Some loss of signal intensity; apyrase inhibition (signal width, signal definition) [5]: apyrase inhibition is particularly occurring; apyrase activity (signal width) in the presence of alkaline phosphatase [3, 7]: lack of apyrase inhibition
Cc1cn([C@H]2C[C@H](O)[C@@H](COP(=O)(O)OP(=O)(O)OP(=O)(O)O)O2)c(=O)[nH]c1=O [dTTP, deoxythymidine triphosphate]	no negative effect	do not inhibit luciferase or apyrase	do not inhibit luciferase or apyrase	–	–
